The results in this text go back to US4504483A, “Fluorine substituted pyridine methyl esters and insecticidal and acaricidal compositions thereof” (Nissan Chemical Industries Ltd., priority 1981, dated 1985).

The subject of one experiment is green rice leafhopper. Put plainly: Contact test for killing green rice leafhopper. Type of experiment: in vivo. The following applies: Nephotettix cincticeps, 48 h, read-out: LC50 (median lethal dose). As to the method:
Stems and leaves of a rice seedling were dipped in each emulsion of each active ingredient of the present invention or a reference compound for 10 seconds and were dried in air. The stems and leaves were covered with a glass cylinder. Adult green rice leafhoppers which are resistant to the conventional organic phosphorus type insecticide were released into the glass cylinder which was covered with a cover having holes and was maintained in a constant temperature room at 25° C. for 48 hours and each percent mortality was determined and median lethal dose (LC50) was calculated in Finny's graphic method.

For a further experiment, the system named is Common cutworm. Put plainly: Contact test for killing Common cutworm. The following applies: 48 h, read-out: LC50 (median lethal dose). Format: in vivo, Spodoptcra litura. As to the method: Leaves of cabbage were dipped in each aqueous emulsion of each active ingredient of the compounds of the invention or the reference for 10 seconds. The leaves were taken up and dried in air and put in a Petri dish. Common cutworms (second instar) were put in the Petri dish which was covered with a cover having many holes. The Petri dish was maintained in a constant temperature room at 25° C. for 48 hours and each percent mortality was determined and median lethal dose (LC50) was calculated in Finny's graphic method.

The subject of experiment [1] is Twenty-eight-spotted Ladybeetle. Put plainly: Contact test for killing Twenty-eight-spotted Ladybeetle. Type of experiment: in vivo. The conditions noted are these: Henosepilachna vigintioctopunctata, in Solanum lycopersicum, 48 h, read-out: LC50 (median lethal dose). As to the method:
Leaves of tomato were dipped in each emulsion of each active ingredient of the present invention or the reference for 10 seconds. The leaves were taken up and dired in air and put in a Petri dish. Ten of Twenty-eight-spotted Ladybeetles (second instar) were put in the Petri dish which was covered with a cover. The Petri dish was maintained in a constant temperature room at 25° C. for 48 hours and percent mortality was determined and median lethal dose (LC50) was calculated in Finny's graphic method.

Another experiment has as its system Green peach aphid. Put plainly: Test for killing Green peach aphid. Type of experiment: in vivo, Myzue persicae. The conditions noted are these: Myzus persicae, 48 h, read-out: LC50 (median lethal dose). As to the method:
Each emulsifiable concentrate of the compound of the present invention or the reference compound was diluted with water to a predetermined concentration. Green peach aphid were inoculated on leaves in a Petri dish having a diameter of 3 cm and 2 ml of each emulsion was sprayed and it was covered. The Petri dish was maintained in a constant temperature room at 25° C. for 48 hours and each percent of mortality was determined and median lethal dose (LC50) was calculated in Finny's graphic method.

For the next experiment, the system named is Kanzawa spider mite. The experiment in a line: Test for killing Kanzawa spider mite. Type of experiment: in vivo. The conditions noted are these: Tetranychus kanzawai, in Phaseolus vulgaris, 48 h, read-out: LC50 (median lethal dose). An excerpt: Leaves of kidney bean was cut by a leaf-punch in a form of circle having a diameter of 1.5 cm. The leaf-discs were put on a wet filter paper on a polystyrene cup having a diameter of 7 cm. Ten of Kanzawa spider mites were inoculated on the leaf-discs in the cup. Half days after the inoculation, each solution prepared by diluting each emulsifiable concentrate of the present invention or each reference compound with a spreader (Nitten S 4,000 times manufactured by Nissan Chem.) at each predetermined concentration was sprayed by a rotary spray for 2 ml. per each cup.
Numbers of mortalities of mites were measured after 48 hours from the spraying and percent mortaliteis were calculated and median lethal dose (LC50) was calculated in Finny's graphic method.

Values after ≈ are worked out from the molar mass of the structure shown.

On to `CC1(C)[C@@H](C(=O)OC(C#N)c2ccc(F)c(Oc3ccccc3)n2)[C@@H]1c1ccc(Cl)cc1` (relative stereo) [Compound No. 3], for which the LC50 in the experiment with green rice leafhopper is 0.7 µg/mL (≈ 1.55 µM); with Common cutworm, 1.3 µg/mL (≈ 2.88 µM); in experiment [1], 0.26 µg/mL (≈ 0.577 µM).

With `CC(C)(C)c1ccc([C@H]2[C@H](C(=O)OC(C#N)c3ccc(F)c(Oc4ccccc4)n3)C2(C)C)cc1` (relative stereo) [Compound No. 4, Cyano(5-fluoro-6-phenoxy-2-pyridyl) methyl trans-2,2-dimethyl-3-(p-t-butylphenyl)cyclopropanecarboxylate], the LC50 in the experiment with green rice leafhopper was found to be 1.3 µg/mL (≈ 2.75 µM); with Common cutworm, 4 µg/mL (≈ 8.46 µM); in the experiment with Green peach aphid it was 4.6 µg/mL (≈ 9.73 µM); with Kanzawa spider mite it was 0.32 µg/mL (≈ 0.677 µM).

With `CC(C)C(C(=O)OC(C#N)c1ccc(F)c(Oc2ccccc2)n1)c1ccc(Cl)cc1` (stereo not drawn) [Compound No. 1, Cyano(5-fluoro-6-phenoxy-2-pyridyl) methyl α-isopropyl-p-chlorophenylacetate], the LC50 with green rice leafhopper turned out to be 0.26 µg/mL (≈ 0.592 µM); in the experiment on Common cutworm, 0.43 µg/mL (≈ 0.98 µM); in the experiment on Kanzawa spider mite, 6.3 µg/mL (≈ 14.4 µM); in experiment [1], 0.05 µg/mL (≈ 0.114 µM).

For `CC(C)C(C(=O)OC(C#N)c1ccc(F)c(Oc2ccccc2)n1)c1ccc(OC(F)F)cc1` (centres unmarked) [Compound No. 2], the LC50 in the experiment with green rice leafhopper was 0.28 µg/mL (≈ 0.595 µM); in the experiment on Common cutworm, 3 µg/mL (≈ 6.38 µM); in the experiment on Green peach aphid, 2.3 µg/mL (≈ 4.89 µM); with Kanzawa spider mite it was 12 µg/mL (≈ 25.5 µM); in experiment [1], 0.5 µg/mL (≈ 1.06 µM).

With `CC1(C)C(C=C(Cl)Cl)C1C(=O)OC(C#N)c1ccc(F)c(Oc2ccccc2)n1` (centres unmarked) [Compound No. 5], the LC50 turned out to be 0.4 µg/mL (≈ 0.919 µM) with green rice leafhopper; 0.31 µg/mL (≈ 0.712 µM) in the experiment with Common cutworm; 1.84 µg/mL (≈ 4.23 µM) in the experiment with Green peach aphid; 5.4 µg/mL (≈ 12.4 µM) in the experiment with Kanzawa spider mite; 0.03 µg/mL (≈ 0.0689 µM) in experiment [1].

Regarding `CC1(C)[C@H](C(=O)OC(C#N)c2ccc(F)c(Oc3ccccc3)n2)[C@@H]1C=C(Br)Br` (stereo partly drawn) [Compound No. 6, Cyano(5-fluoro-6-phenoxy-2-pyridyl) methyl (1R, cis)-2,2-dimethyl-3-(2,2-dibromovinyl)cyclopropane carboxylate], the LC50 in the experiment on green rice leafhopper came to 0.31 µg/mL (≈ 0.591 µM); in the experiment with Common cutworm, 0.24 µg/mL (≈ 0.458 µM); in experiment [1] it was 0.02 µg/mL (≈ 0.0382 µM).

As to `CC(C)C(C(=O)OC(C#N)c1cccc(Oc2ccc(F)cc2)n1)c1ccc(Cl)cc1` (centres unmarked) [Reference Compd. A], the LC50 with green rice leafhopper was 1.4 µg/mL (≈ 3.19 µM); in the experiment with Common cutworm, 3.1 µg/mL (≈ 7.06 µM); in the experiment with Kanzawa spider mite, 100 µg/mL (≈ 228 µM).

Regarding `CC(C)C(C(=O)OC(C#N)c1cccc(Oc2ccccc2)n1)c1ccc(Cl)cc1` (centres unmarked) [Reference Compd. B], the LC50 was 5 µg/mL (≈ 11.9 µM) in the experiment with green rice leafhopper and 1.7 µg/mL (≈ 4.04 µM) with Common cutworm.

With `CC(C)C(C(=O)OC(C#N)c1cccc(Oc2ccc(F)cc2)n1)c1ccc(OC(F)F)cc1` (centres unmarked) [Reference Compd. C], the LC50 is 76 µg/mL (≈ 162 µM) in the experiment with green rice leafhopper, 5 µg/mL (≈ 10.6 µM) in the experiment on Common cutworm, above 100 µg/mL with Kanzawa spider mite and 21 µg/mL (≈ 44.6 µM) in experiment [1].

`CC(C)C(C(=O)OC(C#N)c1cccc(Oc2ccccc2)n1)c1ccc(OC(F)F)cc1` (centres unmarked) [Reference Compd. D]: the LC50 was found to be 6 µg/mL (≈ 13.3 µM) with green rice leafhopper, 9 µg/mL (≈ 19.9 µM) in the experiment with Common cutworm, 26 µg/mL (≈ 57.5 µM) in the experiment on Green peach aphid and 0.9 µg/mL (≈ 1.99 µM) in experiment [1].

Regarding `CC1(C)C(C(=O)OC(C#N)c2cccc(Oc3ccc(F)cc3)n2)C1c1ccc(Cl)cc1` (centres unmarked) [Reference Compd. E], the LC50 in the experiment on green rice leafhopper was found to be 16 µg/mL (≈ 35.5 µM); in the experiment with Common cutworm, 13 µg/mL (≈ 28.8 µM).

Regarding `CC1(C)C(C(=O)OC(C#N)c2cccc(Oc3ccccc3)n2)C1c1ccc(Cl)cc1` (centres unmarked) [Reference Compd. F], the results for the median lethal concentration (LC50) (with Common cutworm; in experiment [1]) were 15 µg/mL (≈ 34.6 µM) and 2 µg/mL (≈ 4.62 µM), respectively.

For `CC(C)(C)c1ccc(C2C(C(=O)OC(C#N)c3cccc(Oc4ccc(F)cc4)n3)C2(C)C)cc1` (centres unmarked) [Reference Compd. G], the figures for the LC50 with green rice leafhopper, with Common cutworm and with Kanzawa spider mite were 32 µg/mL (≈ 67.7 µM), 12 µg/mL (≈ 25.4 µM) and 2 µg/mL (≈ 4.23 µM), respectively.

`CCCCc1ccc(C2C(C(=O)OC(C#N)c3cccc(Oc4ccccc4)n3)C2(C)C)cc1` (centres unmarked) [Reference Compd. H]: the median lethal concentration (LC50) was 6.4 µg/mL (≈ 14.1 µM) in the experiment on green rice leafhopper and 12 µg/mL (≈ 26.4 µM) with Green peach aphid.

On to `CC1(C)C(C=C(Cl)Cl)C1C(=O)OCc1cccc(Oc2ccccc2)n1` (centres unmarked) [Reference Compd. I], for which the LC50 was 3.7 µg/mL (≈ 9.43 µM) with green rice leafhopper, 10 µg/mL (≈ 25.5 µM) in the experiment with Common cutworm, 34 µg/mL (≈ 86.7 µM) with Green peach aphid and above 100 µg/mL in the experiment with Kanzawa spider mite.

By LC50 is commonly meant the concentration that kills 50% of the test population.
